The values that follow come from US20260042746A1, “2(1H)-PYRIDINIMINE DERATIVE” (SUMITOMO PHARMA CO., LTD., priority 2022, published 2026).

The test system of this assay is α-synuclein aggregate. Nature of the assay: Test 2: suppressing the accumulation of α-synuclein aggregate in neurospheroid from PLA2G6 mutant human iPS cells. The settings on record: compound added day 4, measured day 9, DMSO = 100%; for activity at 0.1 µM: 100 nM, read-out: Amount of aggregate (%) 100 nM; for activity at 1 µM: 1000 nM, read-out: Amount of aggregate (%) 1000 nM. In kind it is cell-based. As to the method:
Test 2: Evaluation of Suppressing the Accumulation of α-Synuclein Aggregate with Neurospheroid Prepared from Human iPS Cells with a Mutation in PLA2G6 Gene
(1) Induction of Differentiation from Human iPS Cell to Neural Cell
Neural stem cells were induced from PLA2G6 gene mutant iPS cells with PSC Neuronal Induction Medium (Thermo Fisher Scientific Inc., cat #A1647801). Neurospheroid was prepared from the induced neural stem cells by three-dimensional culture system, and preserved with BrainPhys Neuronal Medium (STEMCELL Technologies, cat #ST-05793) comprising NeuroCult SM1 Neuronal Supplement, N2 Supplement-A, 20 ng/mL BDNF, 20 ng/mL GDNF, 1 mM dibutyryl cAMP, and 200 nM ascorbic acid. Half of the culture medium was replaced on day 2 and day 4 after the induction of differentiation.
The test compound was diluted with the culture medium so as to be twice the final concentration, and an equal volume of the twice-concentrated solution was added to each well when half of the culture medium was replaced on day 4 after induction of differentiation.
(2) Evaluation of the Amount of α-Synuclein Aggregate
From the neurospheroid 9 days after the induction of differentiation, proteins were extracted with a TBS solution containing 1% TritionX-100, and the extracted proteins were subjected to a protein analysis with Simple Western system (Protein Simple, Inc., cat #SM-W008) using an α-synuclein antibody (Thermo Fisher Scientific Inc., cat #AHB0261) to measure the amount of the α-synuclein aggregate.
Assuming that the amount of the aggregate in the neurospheroid added with a DMSO solution is 100%, the amount of the aggregate in the neurospheroid added with each test compound was evaluated.

With `CCC1(C(=O)/N=c2\cc(C)c(C)cn2C)COC1` [Example 35], the activity at 0.1 µM was 95% and the activity at 1 µM came to 97%.
On the same counts, the results for `Cn1cccc/c1=N\C(=O)C1(C)CN(CC(F)(F)F)C1` [Example 73, 3-Methyl-N-[(2E)-1-methylpyridin-2(1H)-ylidene]-1-(2,2,2-trifluoroethyl)azetidine-3-carboxamide] are 79% and 76%.
On the same counts, the results for `CCn1ccc(OC)c/c1=N\C(=O)C1(C)CN(C)C1` [Example 52] are 68% and 60%.
Taken in the same sequence, the figures for `Cn1cccc/c1=N\C(=O)C1CNC1` [Example 66] were 61% and 66%.
On to `Cc1ccn(C)/c(=N/C(=O)C2(C)COC2)c1` [Example 4], for which the activity at 0.1 µM came out at 10% and the activity at 1 µM is 120%.
Taken in the same sequence, the figures for `CCC1(C(=O)/N=c2\cc(Cl)ccn2C)COC1` [Example 21] were 37% and 7%.
For the molecule `CCC1(C(=O)/N=c2\ccc(OC)cn2C)COC1` [Example 29], the activity at 0.1 µM was determined as 89% and the activity at 1 µM was 33%.
Taken in the same sequence, the figures for `Cn1cccc/c1=N\C(=O)C1(C)CNC1` [Example 43, 3-Methyl-N-[(2E)-1-methylpyridin-2(1H)-ylidene]azetidine-3-carboxamide] were 49% and 57%.
Taken in the same sequence, the figures for `CCn1ccc(OC)c/c1=N\C(=O)C1(C)COC1` [Example 10] were 25% and 8%.
On the same counts, the results for `CN1CCC(C(=O)/N=c2\ccccn2C)CC1` [Example 65] are 86% and 67%.
For the molecule `Cn1cccc/c1=N\C(=O)C1CCNC1` (stereo not shown) [Example 67], the activity at 0.1 µM was determined as 62% and the activity at 1 µM amounted to 72%.
Taken in the same sequence, the figures for `CCC1(C(=O)/N=c2\ccc(Cl)cn2C)COC1` [Example 33] were 33% and 50%.
For the molecule `CC(C)N1CC(C)(C(=O)/N=c2\ccccn2C)C1` [Example 71, 3-Methyl-N-[(2E)-1-methylpyridin-2(1H)-ylidene]-1-(propan-2-yl)azetidine-3-carboxamide], the activity at 0.1 µM stood at 64% and the activity at 1 µM was found to be 73%.
Regarding `Cn1ccc(C(F)(F)F)c/c1=N\C(=O)C1(C)COC1` [Example 6], the activity at 0.1 µM came out at 38% and the activity at 1 µM came out at 26%.
On the same counts, the results for `Cc1c/c(=N\C(=O)C2(C)CN(C)C2)n(C)cc1C` [Example 57] are 13% and 31%.
On the same counts, the results for `CCC1(C(=O)/N=c2\cc(C(F)(F)F)ccn2C)COC1` [Example 7] are 40% and 66%.
Consider `Cn1cccc/c1=N\C(=O)N1C[C@H]2CC[C@@H](C1)O2` [Example 76], for which the activity at 0.1 µM was 44% and the activity at 1 µM worked out at 67%.
On the same counts, the results for `Cn1cccc/c1=N\C(=O)C1CCCO1` (stereo not shown) [Example 62] are 76% and 79%.
On to `Cn1cc(F)cc/c1=N\C(=O)C1(C)COC1` [Example 30], for which the activity at 0.1 µM came out at 50% and the activity at 1 µM is 59%.
As to `Cc1c/c(=N\C(=O)C2(C)COC2)n(C)cc1F` [Example 36], the activity at 0.1 µM was 13% and the activity at 1 µM was found to be 16%.
Taken in the same sequence, the figures for `CCn1ccc(OC)c/c1=N\C(=O)C1(C)CNC1` [Example 45] were 25% and 35%.
For `CN1CC(C)(C(=O)/N=c2\ccccn2C)C1` [Example 49, 1,3-Dimethyl-N-[(2E)-1-methylpyridin-2(1H)-ylidene]azetidine-3-carboxamide], the activity at 0.1 µM stood at 78% and the activity at 1 µM was 74%.
On the same counts, the results for `CCOc1ccn(C)/c(=N/C(=O)C2(C)CN(C)C2)c1` [Example 53] are 16% and 92%.
As for `Cc1c/c(=N\C(=O)C2(C)COC2)n(C)cc1Br` [Example 38], the activity at 0.1 µM is 21% and the activity at 1 µM came to 33%.
Taken in the same sequence, the figures for `Cc1c/c(=N\C(=O)C2(C)COC2)n(C)cc1C` [Example 34] were 18% and 85%.
Taken in the same sequence, the figures for `CCC1(C(=O)/N=c2\cc(OC)c(Cl)cn2C)COC1` [Example 41] were 18% and 45%.
On the same counts, the results for `CCOc1ccn(C)/c(=N/C(=O)C2(CC)COC2)c1` [Example 13] are 33% and 13%.
With `Cn1cc(F)cc/c1=N\C(=O)C1(C)CNC1` [Example 46], the activity at 0.1 µM was 85% and the activity at 1 µM came out at 49%.
Taken in the same sequence, the figures for `Cc1cc/c(=N\C(=O)C2(C)COC2)n(C)c1` [Example 24] were 121% and 58%.
On the same counts, the results for `CCC1(C(=O)/N=c2\ccc(C)cn2C)COC1` [Example 25] are 73% and 21%.
Taken in the same sequence, the figures for `CCC1(C(=O)/N=c2\cc(F)ccn2C)COC1` [Example 17] were 77% and 7%.
Turning to `Cn1cccc/c1=N\C(=O)C1(C)CN(C2CC2)C1` [Example 72, 1-Cyclopropyl-3-methyl-N-[(2E)-1-methylpyridin-2(1H)-ylidene]azetidine-3-carboxamide], the activity at 0.1 µM is 64% and the activity at 1 µM was 75%.
On the same counts, the results for `Cc1cc/c(=N\C(=O)C2(C)CNC2)n(C)c1` [Example 47] are 25% and 40%.
Taken in the same sequence, the figures for `Cc1c/c(=N\C(=O)C2(C)CN(C)C2)n(C)cc1F` [Example 58] were 36% and 17%.
For the molecule `CCn1ccc(Cl)c/c1=N\C(=O)C1(C)COC1` [Example 22], the activity at 0.1 µM was 28% and the activity at 1 µM came to 48%.
Consider `CCOc1ccn(C)/c(=N/C(=O)C2(C)COC2)c1` [Example 12], for which the activity at 0.1 µM amounted to 19% and the activity at 1 µM amounted to 10%.
On the same counts, the results for `Cn1cccc/c1=N\C(=O)C1CCNCC1` [Example 68] are 80% and 31%.
On the same counts, the results for `Cn1ccc(OC(F)(F)F)c/c1=N\C(=O)C1(C)COC1` [Example 14] are 21% and 7%.
On the same counts, the results for `Cn1cc(Cl)cc/c1=N\C(=O)C1(C)COC1` [Example 32] are 33% and 31%.
On to `COc1ccn(C)/c(=N/C(=O)C2(C)COC2)c1` [Example 8], for which the activity at 0.1 µM worked out at 58% and the activity at 1 µM was found to be 61%.
In the case of `CN1CC(C)(C(=O)/N=c2\cc(OC(F)(F)F)ccn2C)C1` [Example 54], the activity at 0.1 µM stood at 18% and the activity at 1 µM amounted to 13%.
Regarding `CCn1ccc(F)c/c1=N\C(=O)C1(C)COC1` [Example 18], the activity at 0.1 µM worked out at 30% and the activity at 1 µM was 26%.
On the same counts, the results for `CN1CCC(C(=O)/N=c2\ccccn2C)C1` (stereo not shown) [Example 70] are 77% and 31%.
Taken in the same sequence, the figures for `Cn1cccc/c1=N\C(=O)C1CCOC(C)(C)C1` (stereo not shown) [Example 64] were 69% and 72%.
On the same counts, the results for `Cn1cccc/c1=N\C(=O)N1CCOCC1` [Example 61, N-[(2E)-1-methylpyridin-2(1H)-ylidene]morpholine-4-carboxamide] are 73% and 53%.
Regarding `COc1cc/c(=N\C(=O)C2(C)COC2)n(C)c1` [Example 28], the activity at 0.1 µM is 47% and the activity at 1 µM is 98%.
For the molecule `Cn1ccc(F)c/c1=N\C(=O)C1(C)COC1` [Example 16], the activity at 0.1 µM came to 73% and the activity at 1 µM stood at 62%.
On the same counts, the results for `CCn1ccc(OC)c/c1=N\C(=O)C1(CC)COC1` [Example 11] are 65% and 7%.
Taken in the same sequence, the figures for `Cn1cccc/c1=N\C(=O)N1CCOCC1(C)C` [Example 74, 3,3-Dimethyl-N-[(2E)-1-methylpyridin-2(1H)-ylidene]morpholine-4-carboxamide] were 30% and 64%.
On the same counts, the results for `Cn1cc(C(F)(F)F)cc/c1=N\C(=O)C1(C)COC1` [Example 26] are 23% and 38%.
Consider `Cc1cc/c(=N\C(=O)C2(C)CN(C)C2)n(C)c1` [Example 55], for which the activity at 0.1 µM came out at 92% and the activity at 1 µM turned out to be 74%.
On the same counts, the results for `CN1CC(C(=O)/N=c2\ccccn2C)C1` [Example 69] are 89% and 41%.
Taken in the same sequence, the figures for `COc1ccn(C)/c(=N/C(=O)C2(C)CNC2)c1` [Example 44] were 23% and 10%.
